Data reported in patent US10696655B2, “Therapeutic compounds and uses thereof” (GENENTECH, INC., priority 2017, dated 2020).

Assays:
CBP = CBP (Homo sapiens (Human), UniProt Q92793); assay: CBP TR-FRET binding assay; conditions: His/Flag tagged CBP 4 nM, biotin-ligand 60 nM; read-out: CBP HTRF IC50;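 also: displacement of a biotinylated small-molecule ligand from purified recombinant CBP read by TR-FRET, DMSO-only wells as control, IC50 from nonlinear curve fit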
Protocol: IC50 Measurements for Inhibitors Using CBP TR FRET Binding Assay
His/Flag epitope tagged CBP was cloned, expressed, and purified to homogeneity. CBP binding and inhibition was assessed by monitoring the engagement of a biotinylated small molecule compound with the target using the TR-FRET assay technology (Perkin-Elmer). Specifically, in a 384 well ProxiPlate CBP (4 nM final) was combined with biotin-ligand (60 nM final) in 50 mM HEPES (pH 7.5), 50 mM NaCl, 1 mM TCEP, 0.01% (w/v) BSA, and 0.008% (w/v) Brij-35 either in the presence of DMSO (final 0.2% DMSO) or compound dilution series in DMSO. […] After twenty minutes of equilibration, the plates were read on an Envision instrument and IC50S calculated using a four parameter non-linear curve fit.

MYC = MYC RPL19 QuantiGene assay in MV-4-11 cells; format: cell-based; conditions: Homo sapiens, MV4-11, compound 4 hours
Excerpt: MYC RPL19 QuantiGene assay in MV-4-11 Cells

Sequence of CBP (Q92793 whole entry): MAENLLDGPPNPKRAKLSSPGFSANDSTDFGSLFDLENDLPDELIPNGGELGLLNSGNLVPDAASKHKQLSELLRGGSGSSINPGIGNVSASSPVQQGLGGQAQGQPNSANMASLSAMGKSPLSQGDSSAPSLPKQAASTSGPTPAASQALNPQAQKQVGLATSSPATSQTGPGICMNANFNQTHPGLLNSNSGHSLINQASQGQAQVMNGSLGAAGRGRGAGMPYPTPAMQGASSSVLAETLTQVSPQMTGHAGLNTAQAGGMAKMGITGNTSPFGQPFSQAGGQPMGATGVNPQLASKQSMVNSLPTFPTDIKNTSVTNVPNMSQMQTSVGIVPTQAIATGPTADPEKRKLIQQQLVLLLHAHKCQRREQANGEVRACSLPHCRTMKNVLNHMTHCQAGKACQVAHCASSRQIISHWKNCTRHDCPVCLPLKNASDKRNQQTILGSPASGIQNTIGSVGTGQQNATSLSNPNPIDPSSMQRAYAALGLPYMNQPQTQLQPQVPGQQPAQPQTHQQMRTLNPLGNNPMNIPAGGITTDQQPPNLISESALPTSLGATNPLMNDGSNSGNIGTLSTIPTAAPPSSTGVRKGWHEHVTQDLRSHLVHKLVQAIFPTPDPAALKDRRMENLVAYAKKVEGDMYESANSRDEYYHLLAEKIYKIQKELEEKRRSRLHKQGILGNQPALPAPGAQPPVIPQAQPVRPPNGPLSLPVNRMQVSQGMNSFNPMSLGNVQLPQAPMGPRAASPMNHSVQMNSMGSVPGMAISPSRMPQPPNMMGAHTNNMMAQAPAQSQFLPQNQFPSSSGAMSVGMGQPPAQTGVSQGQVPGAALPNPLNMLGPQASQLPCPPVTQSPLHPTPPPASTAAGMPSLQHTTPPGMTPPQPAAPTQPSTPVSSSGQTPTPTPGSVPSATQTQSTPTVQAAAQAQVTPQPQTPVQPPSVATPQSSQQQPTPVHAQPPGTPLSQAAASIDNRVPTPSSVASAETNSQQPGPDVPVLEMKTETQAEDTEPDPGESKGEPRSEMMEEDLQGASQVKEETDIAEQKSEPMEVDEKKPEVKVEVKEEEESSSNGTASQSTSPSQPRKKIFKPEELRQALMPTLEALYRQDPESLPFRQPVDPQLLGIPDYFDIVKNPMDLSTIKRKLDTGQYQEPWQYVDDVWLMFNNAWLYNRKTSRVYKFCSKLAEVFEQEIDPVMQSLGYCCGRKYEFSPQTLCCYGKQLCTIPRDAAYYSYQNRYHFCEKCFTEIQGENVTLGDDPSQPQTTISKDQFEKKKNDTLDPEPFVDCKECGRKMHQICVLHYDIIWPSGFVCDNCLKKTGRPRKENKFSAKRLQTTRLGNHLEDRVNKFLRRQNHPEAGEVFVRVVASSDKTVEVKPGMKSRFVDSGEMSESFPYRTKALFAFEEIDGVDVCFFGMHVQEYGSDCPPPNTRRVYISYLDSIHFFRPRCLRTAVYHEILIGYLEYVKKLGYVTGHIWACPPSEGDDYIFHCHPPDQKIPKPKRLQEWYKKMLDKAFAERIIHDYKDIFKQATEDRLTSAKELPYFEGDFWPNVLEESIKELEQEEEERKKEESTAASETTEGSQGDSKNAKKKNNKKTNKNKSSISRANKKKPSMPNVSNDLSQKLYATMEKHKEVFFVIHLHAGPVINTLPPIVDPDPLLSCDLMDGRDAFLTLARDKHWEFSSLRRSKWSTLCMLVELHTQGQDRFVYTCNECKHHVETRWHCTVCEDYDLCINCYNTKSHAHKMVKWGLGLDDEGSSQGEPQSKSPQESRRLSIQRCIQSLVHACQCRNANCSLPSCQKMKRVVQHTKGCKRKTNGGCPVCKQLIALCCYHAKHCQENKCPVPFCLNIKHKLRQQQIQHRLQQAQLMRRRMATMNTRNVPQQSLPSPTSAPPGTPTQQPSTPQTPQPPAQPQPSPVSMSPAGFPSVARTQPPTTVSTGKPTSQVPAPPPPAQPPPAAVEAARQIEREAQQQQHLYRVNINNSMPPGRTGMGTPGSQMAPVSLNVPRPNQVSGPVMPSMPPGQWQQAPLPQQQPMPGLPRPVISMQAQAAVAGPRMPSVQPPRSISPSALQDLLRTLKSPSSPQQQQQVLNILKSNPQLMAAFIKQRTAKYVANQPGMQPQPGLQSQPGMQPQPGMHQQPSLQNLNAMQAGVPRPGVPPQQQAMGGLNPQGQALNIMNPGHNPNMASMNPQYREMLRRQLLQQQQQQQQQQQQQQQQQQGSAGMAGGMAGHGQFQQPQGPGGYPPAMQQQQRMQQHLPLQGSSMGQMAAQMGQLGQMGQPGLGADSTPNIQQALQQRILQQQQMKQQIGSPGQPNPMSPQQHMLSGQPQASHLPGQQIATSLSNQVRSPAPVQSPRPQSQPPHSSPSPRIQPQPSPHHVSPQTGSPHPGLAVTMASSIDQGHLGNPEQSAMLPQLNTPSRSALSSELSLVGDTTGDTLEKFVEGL

`Cn1cc(-c2cc3c(cc2C(F)F)N(c2cc(C4CCC4)c4c(c2)n(C)c(=O)n4C)CCC3)cn1` [Example 39] gave an IC50 (CBP) of 12 nM and an IC50 (MYC) of 208 nM.

Molecule `CNC(=O)c1cn(C)c2ccc(N3CCCc4cc(-c5cnn(C)c5)c(C(F)F)cc43)cc12` [Example 50, 5-(7-(difluoromethyl)-6-(1-methyl-1H-pyrazol-4-yl)-3,4-dihydroquinolin-1(2H)-yl)-N,1-dimethyl-1H-indole-3-carboxamide] has an IC50 (CBP) of 9 nM and an IC50 (MYC) of 496 nM.

For `Cn1cc(-c2cc3c(cc2C(F)F)N(c2cc(C4=CC[S+]([O-])CC4)c4c(c2)n(C)c(=O)n4C)CCC3)cn1` (centres unmarked) [Example 98, 6-(7-(difluoromethyl)-6-(1-methyl-1H-pyrazol-4-yl)-3,4-dihydroquinolin-1(2H)-yl)-1,3-dimethyl-4-(1-oxido-3,6-dihydro-2H-thiopyran-4-yl)-1H-benzo[d]imidazol-2(3H)-one], the IC50 (CBP) was 4 nM and the IC50 (MYC) was 86 nM.

`CNC(=O)c1ccc2cccc(N3CCCc4cc(-c5cnn(C)c5)c(C(F)F)cc43)c2n1` [Example 120, 7-(difluoromethyl)-N-methyl-6-(1-methyl-1H-pyrazol-4-yl)-3,4-dihydro-2H-[1,8′-biquinoline]-2′-carboxamide] showed an IC50 (CBP) of 6 nM and an IC50 (MYC) of 632 nM.

`CNC(=O)N1CCOc2ccc(N3CCCc4cc(-c5cnn(C)c5)c(C(F)F)cc43)cc2C1` [Example 113, 7-(7-(difluoromethyl)-6-(1-methyl-1H-pyrazol-4-yl)-3,4-dihydroquinolin-1(2H)-yl)-N-methyl-2,3-dihydrobenzo[f][1,4]oxazepine-4(5H)-carboxamide] was tested, and the IC50 (CBP) was 14 nM and the IC50 (MYC) was 157 nM.

With `Cn1cc(-c2cc3c(cc2C(F)F)N(c2cc(N4CCCC4)c4c(c2)n(C)c(=O)n4C)CCC3)cn1` [Example 43] the IC50 (CBP) was 6 nM and the IC50 (MYC) was 115 nM.

Molecule `CCc1cc2c(cc1N1CCCc3cc(-c4cnn(C)c4)c(C(F)F)cc31)n(C)c(=O)n2C` [Example 47] has an IC50 (CBP) of 39 nM and an IC50 (MYC) of 1110 nM.

`CCC(=O)N1CCOc2ccc(N3CCCc4cc(-c5cnn(C)c5)c(C(F)F)cc43)cc2C1` [Example 78, 1-(7-(7-(difluoromethyl)-6-(1-methyl-1H-pyrazol-4-yl)-3,4-dihydroquinolin-1(2H)-yl)-2,3-dihydrobenzo[f][1,4]oxazepin-4(5H)-yl)propan-1-one] showed an IC50 (CBP) of 22 nM and an IC50 (MYC) of 780 nM.

With `CNC(=O)c1cn(C)c2c(Cl)cc(N3CCCc4cc(-c5cnn(C)c5)c(C(F)F)cc43)cc12` [Example 54, 7-chloro-5-(7-(difluoromethyl)-6-(1-methyl-1H-pyrazol-4-yl)-3,4-dihydroquinolin-1(2H)-yl)-N,1-dimethyl-1H-indole-3-carboxamide] the IC50 (CBP) was 59 nM and the IC50 (MYC) was 2290 nM.

Molecule `COc1cc(N2CCCc3cc(-c4cnn(C)c4)c(C(F)F)cc32)cc2c1n(C)c(=O)n2C` [Example 100, 6-(7-(difluoromethyl)-6-(1-methyl-1H-pyrazol-4-yl)-3,4-dihydroquinolin-1(2H)-yl)-4-methoxy-1,3-dimethyl-1H-benzo[d]imidazol-2(3H)-one] has an IC50 (CBP) of 10 nM and an IC50 (MYC) of 164 nM.

`CC(C)c1cc(N2CCCc3cc(-c4cnn(C)c4)c(C(F)F)cc32)cc2c1n(C)c(=O)n2C` [Example 96, 6-(7-(difluoromethyl)-6-(1-methyl-1H-pyrazol-4-yl)-3,4-dihydroquinolin-1(2H)-yl)-4-isopropyl-1,3-dimethyl-1H-benzo[d]imidazol-2(3H)-one] was tested, and the IC50 (CBP) was 9 nM and the IC50 (MYC) was 220 nM.

`CNC(=O)c1cn(C)c2cnc(N3CCCc4cc(-c5cnn(C)c5)c(C(F)F)cc43)cc12` [Example 59] gave an IC50 (CBP) of 6 nM and an IC50 (MYC) of 205 nM.

`CNC(=O)c1cn(C)c2ccc(N3CCCc4cc(-c5cnn(C)c5)c(C(F)F)cc43)c(F)c12` [Example 55] showed an IC50 (CBP) of 4 nM and an IC50 (MYC) of 115 nM.

For `C=C(C)c1cc(N2CCCc3cc(-c4cnn(C)c4)c(C(F)F)cc32)cc2c(C(=O)NC)cn(C)c12` [Example 107, 5-(7-(difluoromethyl)-6-(1-methyl-1H-pyrazol-4-yl)-3,4-dihydroquinolin-1(2H)-yl)-N,1-dimethyl-7-(prop-1-en-2-yl)-1H-indole-3-carboxamide], the IC50 (CBP) was 16 nM and the IC50 (MYC) was 147 nM.

For `CNC(=O)c1c[nH]c2ncc(N3CCCc4cc(-c5cnn(C)c5)c(C(F)F)cc43)nc12` [Example 69], the IC50 (CBP) was 4 nM and the IC50 (MYC) was 47 nM.

`CNC(=O)c1c[nH]c2cnc(N3CCCc4cc(-c5cnn(C)c5)c(C(F)F)cc43)cc12` [Example 67] was tested, and the IC50 (CBP) was 5 nM and the IC50 (MYC) was 358 nM.

In the case of `CNC(=O)c1cn(C)c2ccc(N3CCCc4cc(-c5cnn(C)c5)c(C(F)F)cc43)nc12` [Example 58], the IC50 (CBP) is reported as 9 nM and the IC50 (MYC) is reported as 181 nM.

Molecule `CNC(=O)c1c[nH]c2c(C(C)C)nc(N3CCCc4cc(-c5cnn(C)c5)c(C(F)F)cc43)cc12` [Example 63] has an IC50 (CBP) of 2 nM and an IC50 (MYC) of 53 nM.

`CCc1cc(N2CCCc3cc(-c4cnn(C)c4)c(C(F)F)cc32)cc2c1n(C)c(=O)n2C` [Example 37] showed an IC50 (CBP) of 11 nM and an IC50 (MYC) of 281 nM.

With `Cc1cc(N2CCCc3cc(-c4cnn(C)c4)c(C(F)F)cc32)cc2c1n(C)c(=O)n2C` [Example 36, 6-(7-(difluoromethyl)-6-(1-methyl-1H-pyrazol-4-yl)-3,4-dihydroquinolin-1(2H)-yl)-1,3,4-trimethyl-1H-benzo[d]imidazol-2(3H)-one] the IC50 (CBP) was 14 nM and the IC50 (MYC) was 1380 nM.

Work on `Cn1cc(-c2cc3c(cc2C(F)F)N(c2ccc4c(c2)n(C)c(=O)n4C)CCC3)cn1` [Example 18] yielded an IC50 (CBP) of 19 nM and an IC50 (MYC) of 1020 nM.

In the case of `CNC(=O)c1c[nH]c2ccc(N3CCCc4cc(-c5cnn(C)c5)c(C(F)F)cc43)nc12` [Example 65], the IC50 (CBP) is reported as 5 nM and the IC50 (MYC) is reported as 150 nM.

`CNC(=O)c1c[nH]c2c(C(C)C)cc(N3CCCc4cc(-c5cnn(C)c5)c(C(F)F)cc43)cc12` [Example 62, 5-(7-(difluoromethyl)-6-(1-methyl-1H-pyrazol-4-yl)-3,4-dihydroquinolin-1(2H)-yl)-7-isopropyl-N-methyl-1H-indole-3-carboxamide] showed an IC50 (CBP) of 12 nM and an IC50 (MYC) of 84 nM.

Molecule `CN(C)c1cc(N2CCCc3cc(-c4cnn(C)c4)c(C(F)F)cc32)cc2c1n(C)c(=O)n2C` [Example 41, 6-(7-(difluoromethyl)-6-(1-methyl-1H-pyrazol-4-yl)-3,4-dihydroquinolin-1(2H)-yl)-4-(dimethylamino)-1,3-dimethyl-1H-benzo[d]imidazol-2(3H)-one] has an IC50 (CBP) of 5 nM and an IC50 (MYC) of 136 nM.

`Cn1cc(-c2cc3c(cc2C(F)F)N(c2cc4c(cc2F)n(C)c(=O)n4C)CCC3)cn1` [Example 35] was tested, and the IC50 (CBP) was 23 nM and the IC50 (MYC) was 428 nM.

`CNC(=O)N1CCNc2ccc(N3CCCc4cc(-c5cnn(C)c5)c(C(F)F)cc43)cc2C1` [Example 16, 7-[7-(difluoromethyl)-6-(1-methylpyrazol-4-yl)-3,4-dihydro-2H-quinolin-1-yl]-N-methyl-1,2,3,5-tetrahydro-1,4-benzodiazepine-4-carboxamide] was tested, and the IC50 (CBP) was 8 nM and the IC50 (MYC) was 173 nM.

For `CNC(=O)c1cn(C)c2cc(C)c(N3CCCc4cc(-c5cnn(C)c5)c(C(F)F)cc43)cc12` [Example 57], the IC50 (CBP) was 9 nM and the IC50 (MYC) was 302 nM.

`Cn1cc(-c2cc3c(cc2C(F)F)N(c2cc(Cl)c4c(c2)n(C)c(=O)n4C)CCC3)cn1` [Example 33, 4-chloro-6-(7-(difluoromethyl)-6-(1-methyl-1H-pyrazol-4-yl)-3,4-dihydroquinolin-1(2H)-yl)-1,3-dimethyl-1H-benzo[d]imidazol-2(3H)-one] was tested, and the IC50 (CBP) was 42 nM and the IC50 (MYC) was 1170 nM.
